Source: US20230305016A1, “TEST KIT AND METHOD OF DETERMINING TRYPTOPHAN IN EXTRACTS OF FAECAL SAMPLES” (IMMUNDIAGNOSTIK AG, priority 2020, published 2023)
Read-outs that look alike come from different tables or passages of the source.

Columns and labels:
[1] = rat, in vivo; cited from earlier work
depression = settings: cited from earlier work; for side effects: adults; for effective in alleviating depression in adults: versus placebo
[2] = carboxyl group; cited from earlier work
[3] = set-up: key to Oxidation into 14CO2: x: Detected but not quantified; xx: Detected but not quantified; settings: rats, cited from earlier work
GLUT5 = settings: mice; duodenum and adipose tissue; cited from earlier work
[4] = Alkaline hydrolyzation of spiked fructose-tryptophan Amadori product in stool extract; type: physicochemical; settings: 10 M NaOH, 100° C., 20 min
Method: 5 mg fructose-tryptophan Amadori product (MW=366.37 Da) was dissolved in 2.27 ml aqua dest. (6 mM/L). The concentration of peptide groups in this solution was determined to be 4.36 mM/L using a BCA test (Smith P K et al, Measurement of protein using bicinchoninic acid, in: Analytical Biochemistry […], 150(1):76-85, doi:10.1016/0003-2697(85)90442-7). This concentration was taken in the spiking experiments. The IDK® Amino Extract (dilution 1:50) was spiked with fructose-tryptophan Amadori product (not the raw stool) to achieve a target concentration the spiked fecal extract of 6 μM Amadori adduct/L. This corresponds to a spiking of 300 μM fructose-tryptophan Amadori product per gram stool as the stool was diluted 1:50 in the extract.
The spiking and hydrolyzation was carried out as follows: 70 μl stool extract were spiked with 10 μl 60 μM/L fructose-tryptophan Amadori product (as determined by BCA) and 10 μl 10 M NaOH. This solution was incubated at 100° C. for 20 min. to achieve hydrolyzation of all adducts and centrifuged at 550 rpm for removal of any precipitate. Finally, 10 μl 10 M HCl was added to neutralize (dilution 1:10) the solution prior measurement of tryptophan. In case of a spiking with fructose or tryptophan, the spiking solution contained 60 μM/L fructose and/or tryptophan each.

[5] = % of the ingested/injected material

NC(CCCCNCC(=O)C(O)C(O)C(O)CO)C(=O)O (stereo not shown) [ε-Lysine]
absorption in the intestine [1]: NOT absorbed in the intestine

N[C@@H](Cc1c[nH]c2ccc(O)cc12)C(=O)O [5-HTP, 5-hydroxytryptophan]
side effects (depression): may have serious side effects
effective in alleviating depression in adults (depression): better than placebo

N[C@@H](Cc1c[nH]c2ccccc12)C(=O)O [tryptophan]
side effects (depression): may have serious side effects
effective in alleviating depression in adults (depression): better than placebo
pKa [2]: 2,38

N[C@@H](Cc1c[nH]c2ccccc12)C(=O)O [^14C-Tryptophan]
Retention in liver [3, 5]: 0.7%
urinary excretion [3, 5]: 60%
Oxidation into 14CO2 ([3]; detected but not quantified): xx^b
urinary excretion ([3]; summary of Table 1): ~60%

O=S(=O)(c1ccccc1)N(CC(F)(F)F)c1ccc(C(O)(C(F)(F)F)C(F)(F)F)cc1 [T0901317]
GLUT5 mRNA (GLUT5): increase
GLUT5 protein levels (GLUT5): increased

D-fructose-L-tryptophan [fructose-tryptophan Amadori product]
hydrolyzation of added adduct [4]: hydrolyzed
